Laboratory results from ChEMBL document CHEMBL3885861, “Open TG-GATES”.

Organism: Rattus norvegicus
Assay: Open TG-GATES - Regimen: Single
Format: toxicity, organism-based, Sprague-Dawley
Design: regimen Single, gender Male, age 6 weeks
Conditions: in vivo, ip, 400 mg/kg, route intraperitoneal injection, dose level High; for APTT / Bas / Eos / Fbg / Hb / Ht / Lym / MCH / MCHC / MCV / Mono / Neu / PT / Plat / RBC / Ret / WBC: tissue Blood; for KIDNEY_L / KIDNEY_R / KIDNEY_TOTAL: tissue Kidney; for LIVER: tissue Liver; for A/G / ALP / ALT / AST / BUN / CRE / Ca / Cl / DBIL / GLC / IP / K / LDH / Na / PL / RALB / TBIL / TC / TG / TP / gamma-GTP: tissue Plasma

## CC(C)=CC(=O)C=C(C)C [PHORONE]
3 h
  TERMINAL_BW: 224 g
  APTT: 18 s
  Bas: 0%
  Eos: 0.8%
  Fbg: 206.6 mg/dL
  Hb: 13.7 g/dL
  Ht: 40.8%
  Lym: 81%
  MCH: 21.9 pg
  MCHC: 33.6%
  MCV: 65.1 fL
  Mono: 5%
  Neu: 13.6%
  PT: 12.9 s
  Plat: 130 x10_4/uL
  RBC: 626.2 x10_4/ul
  Ret: 9.1%
  WBC: 81.1 x10_2/uL
  KIDNEY_L: 0.9 g
  KIDNEY_R: 1 g
  KIDNEY_TOTAL: 1.9 g
  LIVER: 9.4 g
  A/G: 2.4
  ALP: 931 IU/L
  ALT: 51 IU/L
  AST: 106.6 IU/L
  BUN: 23.4 mg/dL
  CRE: 1.1 mg/dL
  Ca: 11 mg/dL
  Cl: 99.4 meq/L
  DBIL: 0.046 mg/dL
  GLC: 292.8 mg/dL
  IP: 9.8 mg/dL
  K: 4.6 meq/L
  LDH: 282.6 IU/L
  Na: 136 meq/L
  PL: 110.6 mg/dL
  RALB: 3.8 g/dL
  TBIL: 0.9 mg/dL
  TC: 67 mg/dL
  TG: 18 mg/dL
  TP: 5.4 g/dL
  gamma-GTP: 1.8 IU/L
6 h
  TERMINAL_BW: 215 g
  APTT: 17.1 s
  Bas: 0%
  Eos: 1.2%
  Fbg: 208.2 mg/dL
  Hb: 13.4 g/dL
  Ht: 40.7%
  Lym: 61%
  MCH: 21.4 pg
  MCHC: 33%
  MCV: 64.8 fL
  Mono: 8%
  Neu: 30.2%
  PT: 13.9 s
  Plat: 123.8 x10_4/uL
  RBC: 627.6 x10_4/ul
  Ret: 9.2%
  WBC: 84.8 x10_2/uL
  KIDNEY_L: 0.9 g
  KIDNEY_R: 1 g
  KIDNEY_TOTAL: 1.9 g
  LIVER: 8.6 g
  A/G: 2.2
  ALP: 925 IU/L
  ALT: 73.2 IU/L
  AST: 174 IU/L
  BUN: 23 mg/dL
  CRE: 0.7 mg/dL
  Ca: 10.5 mg/dL
  Cl: 106.4 meq/L
  DBIL: 0.048 mg/dL
  GLC: 168 mg/dL
  IP: 11.2 mg/dL
  K: 4.4 meq/L
  LDH: 277.8 IU/L
  Na: 138.2 meq/L
  PL: 110.4 mg/dL
  RALB: 3.7 g/dL
  TBIL: 1 mg/dL
  TC: 67.2 mg/dL
  TG: 24.4 mg/dL
  TP: 5.5 g/dL
  gamma-GTP: 1.4 IU/L
9 h
  TERMINAL_BW: 210.1 g
  APTT: 17.1 s
  Bas: 0%
  Eos: 1%
  Fbg: 209.8 mg/dL
  Hb: 13.4 g/dL
  Ht: 40.7%
  Lym: 56.4%
  MCH: 21.6 pg
  MCHC: 33%
  MCV: 65.4 fL
  Mono: 8%
  Neu: 35%
  PT: 13.9 s
  Plat: 123.6 x10_4/uL
  RBC: 622.2 x10_4/ul
  Ret: 10.3%
  WBC: 125.6 x10_2/uL
  KIDNEY_L: 1 g
  KIDNEY_R: 1 g
  KIDNEY_TOTAL: 2 g
  LIVER: 8.3 g
  A/G: 2.1
  ALP: 915.4 IU/L
  ALT: 60.2 IU/L
  AST: 166.6 IU/L
  BUN: 23.8 mg/dL
  CRE: 0.6 mg/dL
  Ca: 10.9 mg/dL
  Cl: 104.6 meq/L
  DBIL: 0.06 mg/dL
  GLC: 155.2 mg/dL
  IP: 11.6 mg/dL
  K: 4.1 meq/L
  LDH: 257 IU/L
  Na: 138.2 meq/L
  PL: 107.4 mg/dL
  RALB: 3.9 g/dL
  TBIL: 0.8 mg/dL
  TC: 71 mg/dL
  TG: 38.6 mg/dL
  TP: 5.8 g/dL
  gamma-GTP: 1.2 IU/L
24 h
  TERMINAL_BW: 201.7 g
  APTT: 24.9 s
  Bas: 0%
  Eos: 0.4%
  Fbg: 190.4 mg/dL
  Hb: 14.1 g/dL
  Ht: 42.5%
  Lym: 77%
  MCH: 21.6 pg
  MCHC: 33.1%
  MCV: 65.1 fL
  Mono: 3.2%
  Neu: 19.4%
  PT: 20 s
  Plat: 121.3 x10_4/uL
  RBC: 652.2 x10_4/ul
  Ret: 7.6%
  WBC: 140.6 x10_2/uL
  KIDNEY_L: 1.1 g
  KIDNEY_R: 1.1 g
  KIDNEY_TOTAL: 2.1 g
  LIVER: 9.4 g
  A/G: 2.2
  ALP: 828.6 IU/L
  ALT: 296.8 IU/L
  AST: 1408.4 IU/L
  BUN: 19.2 mg/dL
  CRE: 0.5 mg/dL
  Ca: 10.2 mg/dL
  Cl: 110.6 meq/L
  DBIL: 0.2 mg/dL
  GLC: 167.2 mg/dL
  IP: 8.4 mg/dL
  K: 3.9 meq/L
  LDH: 4785 IU/L
  Na: 139.2 meq/L
  PL: 97.6 mg/dL
  RALB: 3.7 g/dL
  TBIL: 0.6 mg/dL
  TC: 56.8 mg/dL
  TG: 23.2 mg/dL
  TP: 5.4 g/dL
  gamma-GTP: 0.8 IU/L
